Experimental data taken from the NIST ThermoML archive (doi:10.1021/je101058b).

Details: Liquid, Pycnometric method

c1ccc2c(c1)ccc1ccccc12 [phenanthrene]
molar volume [m3/mol]
Details | 377.69 K | 385.54 K | 393.38 K | 401.26 K | 409.13 K | 417.06 K | 424.84 K
2049 kPa | 0.0001679 | 0.0001688 | 0.0001698 | 0.0001708 | 0.0001717 | 0.0001728 | 0.0001738
4049 kPa | 0.0001677 | 0.0001686 | 0.0001696 | 0.0001705 | 0.0001715 | 0.0001726 | 0.0001735
6049 kPa | 0.0001674 | 0.0001683 | 0.0001692 | 0.0001702 | 0.0001712 | 0.0001723 | 0.0001732
8049 kPa | 0.0001672 | 0.0001681 | 0.000169 | 0.00017 | 0.000171 | 0.0001719 | 0.0001729
10049 kPa | 0.000167 | 0.0001679 | 0.0001689 | 0.0001698 | 0.0001709 | 0.0001718 | 0.0001727
